Where a name gives a salt, the structure may show the parent alone.

In patent US7485657B2, “Anti-cytokine heterocyclic compounds” (Boehringer Ingelheim Pharmaceuticals, Inc., priority 2004, dated 2009) one finds melting point data, which are given here for three compounds.

Turning to `CCOC(=O)c1cc(N)n(-c2cc(C(=O)Nc3cc(C(C)(C)C)cc(NS(C)(=O)=O)c3OC)ccc2C)n1` (as salt: TFA) [Example 1, 5-amino-1-[5-(5-tert-butyl-3-methanesulfonylamino-2-methoxy-phenylcarbamoyl)-2-methyl-phenyl]-1H-pyrazole-3-carboxylic acid ethyl ester], the melting point is 104 to 111 °C (dec.).

In turn, `CCOC(=O)c1cnn(-c2cc(C(=O)Nc3cc(C(C)(C)C)cc(NS(C)(=O)=O)c3OC)ccc2C)c1` [Example 2, 1-[5-(5-tert-butyl-3-methanesulfonylamino-2-methoxy-phenylcarbamoyl)-2-methyl-phenyl]-1H-pyrazole-4-carboxylic acid ethyl ester] yielded a melting point of 125 to 130 °C.

Regarding `COc1c(NC(=O)c2ccc(C)c(-n3cc(C(=O)NCc4cccnc4)cn3)c2)cc(C(C)(C)C)cc1NS(C)(=O)=O` [Example 4, 1-[5-(5-tert-Butyl-3-methanesulfonylamino-2-methoxy-phenylcarbamoyl)-2-methyl-phenyl]-1H-pyrazole-4-carboxylic acid (pyridin-3-ylmethyl)-amide], the melting point lay in the range of 127 to 133 °C.
